Our source for the logD, pKa and logP values is ChEMBL document CHEMBL1129378, “Octanol-, chloroform-, and propylene glycol dipelargonat-water partitioning of morphine-6-glucuronide and other related opiates” (J Med Chem, 1996).

Data set [1] is described as follows: physchem. Particulars: octanol/water.
Description: (§1) Partition coefficient of Zwitterion (logD)
A short description of data set [2]: physchem. Particulars: octanol/water. The source holds these as a separate data set.
Description: Partition coefficient of anion (logD)
Data set [3] can be described thus: physchem.
Description: Sugar COOH pKa of compound
Data set [4] is described as follows: physchem. Particulars: buffer, pH 7.4.
Description: Log D of compound; LogD at pH 7.4
The nature of data set [5]: physchem. The source holds these as a separate data set.
The nature of data set [6]: physchem. This is another data set of the same source.
The conditions of data set [7]: octanol/water.
Description: Partition coefficient of cation (logD)
The nature of data set [8]: Phenolic pKa of compound with […] NaCl. The data set is classed as physicochemical.
The conditions of data set [9]: octanol/water. The source holds these as a separate data set.
Description: as §1
Data set [10] is described as follows: Partition coefficient (logD) of Zwitterion (chloroform/water). The data set is classed as physicochemical.
A short description of data set [11]: Partition coefficient (logD) of anion (chloroform/water). The data set is classed as physicochemical.
The nature of data set [12]: Partition coefficient (logP) (chloroform). The data set is classed as physicochemical.
Data set [13] can be described thus: Log D of compound (Chloroform water medium). It counts as physicochemical. Particulars: buffer.

For orientation: logD means the decadic logarithm of the distribution of all forms, ionised or not, between an organic phase and buffer at a given pH. Read a low logD as a more hydrophilic compound. What is called pKa is the pH at which an ionisable group is half protonated. Low readings indicate a group that gives up its proton readily, high ones a group that holds its proton tightly. On to `Cc1cc(=O)oc2cc(O[C@@H]3O[C@H](C(=O)O)[C@@H](O)[C@H](O)[C@H]3O)ccc12`, for which the figures for the logD in “physchem [1]”, in the data set “physchem [2]” and in the data set “physchem [4]” were -0.39, -1.3 and -1.32, respectively. In “physchem [3]”, this compound registered a pKa of 2.82.
Take `CC(=O)O[C@H]1C=C[C@H]2[C@H]3Cc4ccc(O)c5c4[C@@]2(CCN3C)[C@H]1O5`: the pKa was 8.19 in “physchem [5]” and 9.55 in the data set “physchem [6]”. For the same compound, the logD was under -2 in data set [7], 1.55 in “physchem [1]”, -0.42 in “physchem [2]” and 0.61 in the data set “physchem [4]”.
Consider `CO[C@]12CC[C@@]3(C[C@@H]1[C@](C)(O)C(C)(C)C)[C@H]1Cc4ccc(O)c5c4[C@@]3(CCN1CC1CC1)[C@H]2O5` [BUPRENORPHINE], for which the pKa amounted to 8.31 in the data set “physchem [5]” and 9.62 in data set [8]. Further, the logD was 0.45 in data set [7], 3.24 in “physchem [2]” and 3.93 in the data set “physchem [4]”.
Regarding `COc1ccc2c3c1O[C@H]1[C@@H](O)C=C[C@H]4[C@@H](C2)N(C)CC[C@@]341` [CODEINE], the values for the logD (in data set [9]; in data set [7]; in “physchem [4]”) were 1.19, under -2 and 0.22, respectively.
In the case of `CC(=O)Oc1ccc2c3c1O[C@H]1[C@@H](OC(C)=O)C=C[C@H]4[C@@H](C2)N(C)CC[C@@]341` [DIACETYLMORPHINE], the pH-dependent lipophilicity (logD) is -0.94 in [7], 1.58 in the data set “physchem [1]” and 0.85 in the data set “physchem [4]”.
In general, logP refers to a log measure of how a compound divides between an organic and an aqueous phase. Read a low logP as lower lipophilicity. Take `CN1CC[C@]23c4c5ccc(O[C@@H]6O[C@H](C(=O)O)[C@@H](O)[C@H](O)[C@H]6O)c4O[C@H]2[C@@H](O)C=C[C@H]3[C@H]1C5` [MORPHINE 3-GLUCURONIDE]: the logD was -1.12 in data set [10]; under -2 in data set [11]; under -2 in [7]; -1.1 in the data set “physchem [1]”; -1.18 in data set [13]; -1.45 in the data set “physchem [2]”. This compound also displayed a logD in “physchem [4]” of -1.12. In data set [12], this compound came in with a logP of -1.12.
With `CN1CC[C@]23c4c5ccc(O)c4O[C@H]2[C@@H](O[C@@H]2O[C@H](C(=O)O)[C@@H](O)[C@H](O)[C@H]2O)C=C[C@H]3[C@H]1C5` [MORPHINE GLUCURONIDE], the pKa in “physchem [6]” was 9.42.
In the case of `COc1ccc2c3c1O[C@H]1[C@@H](O)C=C[C@H]4[C@@H](C2)NCC[C@@]341` [NORCODEINE], in the data set “physchem [5]”, the pKa came out at 9.23. Besides, the logD in [7] is under -2; in “physchem [1]”, 0.69; in “physchem [2]” it was under -2; in the data set “physchem [4]”, -1.26.
